Where no end group is shown, it is not given here.
Tested on: silkworm non-diapause strain (N4 line) pupa
Assay: Assay of bioactivity: specimen injected into 4 days-age pupa of non-diapause strain, percentage of laid eggs that diapause
Assay type: in vivo, silkworm (Bombyx mori)
Conditions: qualitative
Protocol: The hormonal activity was confirmed by the following method: the specimen is injected into the 4 days-age pupa of non-diapause strain. After the pupa transforms into a imago, copulates, and lays eggs, it is investigated whether or not the eggs diapause without embryogenesis. […] In case that the specimen has the hormonal activity, the color of the eggs becomes blackish-brown which is not observed in non-diapausing eggs. […] The hormonal activity is determined by calculating what percentage of the eggs laid by one imago diapauses. One diapause hormone unit is the amount of the hormone which make 50% of the laid eggs diapause. In this invention, the isolated diapause hormone was 0.1 ng/unit.

TDMKDESDRGAHSERGALCFGPRL-NH2 [amino acid 19 is Cys]
diapause hormone activity (hormonal activity in bioassay): have diapause activity

TDMKDESDRGAHSERGALWFGPRL-NH2 [amino acid 19 is Trp]
diapause hormone activity (hormonal activity in bioassay): have diapause activity

Reference: US5322928A, “Diapause hormone isolated from silkworm exhibiting improved diapause activity” (Shionogi Seiyaku Kabushiki Kaisha, priority 1991, dated 1994)
